As a reminder, the IC50 is the concentration needed to halve the response being measured. Lower therefore signals greater potency in that assay.

Among the data in ChEMBL document CHEMBL4177615 (Bioorg Med Chem, 2017) are inhibition of growth and IC50 values, retold here.

The test system of assay [1] is Plasmodium falciparum. Description: Antimalarial activity against Plasmodium falciparum 3D7 infected in ARh+ human erythrocytes at 10 uM after 42 to 48 hrs by Picogreen staining-based 96 well microplate assay. The assay is classed as functional. The note with it: read-out: GI.
Assay [2] concerns Plasmodium falciparum. Nature of the assay: Antimalarial activity against Plasmodium falciparum 3D7 infected in ARh+ human erythrocytes at 1 uM after 42 to 48 hrs by Picogreen staining-based 96 well microplate assay. The assay is classed as functional. The conditions noted are these: read-out: GI.
The test system of assay [3] is Plasmodium falciparum. Nature of the assay: Antimalarial activity against Plasmodium falciparum 3D7 infected in ARh+ human erythrocytes at 0.1 uM after 42 to 48 hrs by Picogreen staining-based 96 well microplate assay. Type of assay: functional. The note with it: read-out: GI.
The subject of assay [4] is Plasmodium falciparum. Nature of the assay: Antimalarial activity against Plasmodium falciparum 3D7 infected in ARh+ human erythrocytes at 0.01 uM after 42 to 48 hrs by Picogreen staining-based 96 well microplate assay. Type of assay: functional. The conditions noted are these: read-out: GI.
Assay [5] has as its system Plasmodium falciparum. Description: Antimalarial activity against Plasmodium falciparum 3D7 infected in ARh+ human erythrocytes after 42 to 48 hrs by Picogreen staining-based 96 well microplate assay. Type of assay: functional, organism-based.

In the case of `Fc1ccc(Cn2c(NC3CCN(CCCc4ccccc4)CC3)nc3ccccc32)cc1`, the inhibition of growth at 10 µM in the assay on Plasmodium falciparum [1] worked out at 100%. For the same compound, the inhibition of growth at 1 µM with Plasmodium falciparum [2] turned out to be 78%. Besides, the inhibition of growth at 0.1 µM with Plasmodium falciparum [3] came out at 37%. Besides, in the assay on Plasmodium falciparum [4], the inhibition of growth at 0.01 µM came out at 2%. For the same compound, in the assay on Plasmodium falciparum [5], the IC50 is 0.196 µM.
Consider `Fc1ccc(Cn2c(NC3CCN(Cc4ccccc4)CC3)nc3ccccc32)cc1`, for which the inhibition of growth at 10 µM in the assay on Plasmodium falciparum [1] worked out at 94%. For the same compound, the inhibition of growth at 1 µM in the assay with Plasmodium falciparum [2] was 29%. Moreover, the inhibition of growth at 0.1 µM in the assay with Plasmodium falciparum [3] worked out at 2%. Moreover, the inhibition of growth at 0.01 µM with Plasmodium falciparum [4] was found to be 2%. Moreover, in the assay with Plasmodium falciparum [5], the IC50 was 1.9 µM.
For the compound `COc1ccc(CCN2CCC(Nc3nc4ccccc4n3Cc3ccc(F)cc3)C2)cc1` (stereo not given), the inhibition of growth at 10 µM in the assay on Plasmodium falciparum [1] was 67%. In addition, the inhibition of growth at 1 µM with Plasmodium falciparum [2] came to 14%. In the assay on Plasmodium falciparum [3], the inhibition of growth at 0.1 µM worked out at 0%. Further, the inhibition of growth at 0.01 µM in the assay with Plasmodium falciparum [4] is 0%. In the assay with Plasmodium falciparum [5], this compound yielded an IC50 of 5.32 µM.
Regarding `O=C(NCc1ccccc1)N1CCC(Nc2nc3ccccc3n2Cc2ccc(F)cc2)CC1`, the inhibition of growth at 10 µM in the assay with Plasmodium falciparum [1] is 25%. Further, the inhibition of growth at 1 µM in the assay on Plasmodium falciparum [2] stood at 4%. Further, in the assay on Plasmodium falciparum [3], the inhibition of growth at 0.1 µM stood at 0%. Also, the inhibition of growth at 0.01 µM in the assay with Plasmodium falciparum [4] worked out at 0%. The compound also came in with an IC50 in the assay on Plasmodium falciparum [5] of over 10 µM.
`COCn1c(NC2CCN(CCc3ccc(OC)cc3)CC2)nc2ccccc21`: the inhibition of growth at 10 µM in the assay on Plasmodium falciparum [1] was 64%. In addition, in the assay with Plasmodium falciparum [2], the inhibition of growth at 1 µM was 5%. Also, the inhibition of growth at 0.1 µM with Plasmodium falciparum [3] stood at 0%. Besides, the inhibition of growth at 0.01 µM with Plasmodium falciparum [4] was 0%. Further, in the assay with Plasmodium falciparum [5], half-maximal inhibition (IC50) required 6.74 µM.
`COc1ccc(OC)c(S(=O)(=O)N2CCC(Nc3nc4ccccc4n3Cc3ccc(F)cc3)CC2)c1`: in the assay on Plasmodium falciparum [1], the inhibition of growth at 10 µM stood at 61%. Moreover, the inhibition of growth at 1 µM in the assay with Plasmodium falciparum [2] was found to be 8%. The inhibition of growth at 0.1 µM in the assay with Plasmodium falciparum [3] was 4%. The inhibition of growth at 0.01 µM with Plasmodium falciparum [4] turned out to be 5%. For the same compound, the midpoint of inhibition in the assay with Plasmodium falciparum [5], the IC50, lay at 6.85 µM.
The matching figures for `O=C(N1CCOCC1)N1CCC(Nc2nc3ccccc3n2Cc2ccc(F)cc2)CC1`: 26%, 0%, 0%, 0% and over 10 µM.
The matching figures for `O=S(=O)(c1ccc(Cl)cc1)N1CCC(Nc2nc3ccccc3n2Cc2ccc(F)cc2)CC1`: 83%, 6%, 1%, 4% and 3.96 µM.
For `O=C(c1ccc(F)cc1)N1CCC(Nc2nc3ccccc3n2Cc2ccc(F)cc2)CC1`, the inhibition of growth at 10 µM with Plasmodium falciparum [1] is 51%. Further, the inhibition of growth at 1 µM in the assay with Plasmodium falciparum [2] is 6%. In addition, the inhibition of growth at 0.1 µM in the assay with Plasmodium falciparum [3] was determined as 0%. Further, the inhibition of growth at 0.01 µM in the assay with Plasmodium falciparum [4] stood at 0%. The same compound came in with an IC50 in the assay on Plasmodium falciparum [5] of 10 µM.
Regarding `CC(C)CN1CCC(Nc2nc3ccccc3n2Cc2ccc(F)cc2)CC1`, the inhibition of growth at 10 µM in the assay with Plasmodium falciparum [1] was 90%. For the same compound, in the assay on Plasmodium falciparum [2], the inhibition of growth at 1 µM came to 60%. Further, in the assay with Plasmodium falciparum [3], the inhibition of growth at 0.1 µM was found to be 0%. Besides, the inhibition of growth at 0.01 µM in the assay on Plasmodium falciparum [4] amounted to 0%. In the assay with Plasmodium falciparum [5], the IC50 was 0.829 µM.
On to `CC(C)S(=O)(=O)N1CCC(Nc2nc3ccccc3n2Cc2ccc(F)cc2)CC1`, for which the inhibition of growth at 10 µM with Plasmodium falciparum [1] came out at 11%. In the assay with Plasmodium falciparum [2], the inhibition of growth at 1 µM came out at 1%. Moreover, in the assay on Plasmodium falciparum [3], the inhibition of growth at 0.1 µM is 3%. The inhibition of growth at 0.01 µM in the assay on Plasmodium falciparum [4] is 2%. The compound further showed an IC50 in the assay on Plasmodium falciparum [5] of over 10 µM.
The matching figures for `COc1ccc(CCN2CCC(Nc3nc4ccccc4n3Cc3ccc(Br)cc3)CC2)cc1`: 97%, 100%, 47%, 0% and 0.111 µM.
For `O=C(NCCc1ccccc1)N1CCC(Nc2nc3ccccc3n2Cc2ccc(F)cc2)CC1`, the inhibition of growth at 10 µM in the assay on Plasmodium falciparum [1] stood at 49%. Further, in the assay with Plasmodium falciparum [2], the inhibition of growth at 1 µM was 15%. The inhibition of growth at 0.1 µM with Plasmodium falciparum [3] stood at 1%. For the same compound, in the assay with Plasmodium falciparum [4], the inhibition of growth at 0.01 µM was determined as 8%. The compound also came in with an IC50 in the assay with Plasmodium falciparum [5] of over 10 µM.
For `O=C(Nc1ccc2c(c1)CCC2)N1CCC(Nc2nc3ccccc3n2Cc2ccc(F)cc2)CC1`, the inhibition of growth at 10 µM in the assay with Plasmodium falciparum [1] was found to be 66%. For the same compound, in the assay on Plasmodium falciparum [2], the inhibition of growth at 1 µM stood at 5%. The inhibition of growth at 0.1 µM in the assay with Plasmodium falciparum [3] stood at 2%. The inhibition of growth at 0.01 µM with Plasmodium falciparum [4] is 1%. This compound also showed an IC50 in the assay on Plasmodium falciparum [5] of 6.28 µM.
The matching figures for `Cc1ccc(S(=O)(=O)N2CCC(Nc3nc4ccccc4n3Cc3ccc(F)cc3)CC2)cc1`: 55%, 10%, 7%, 8% and 8.29 µM.
As to `O=C(c1ccc(C(F)(F)F)cc1)N1CCC(Nc2nc3ccccc3n2Cc2ccc(F)cc2)CC1`, the inhibition of growth at 10 µM with Plasmodium falciparum [1] was found to be 66%. The inhibition of growth at 1 µM with Plasmodium falciparum [2] worked out at 6%. Moreover, the inhibition of growth at 0.1 µM in the assay on Plasmodium falciparum [3] was 0%. Also, the inhibition of growth at 0.01 µM with Plasmodium falciparum [4] was found to be 3%. The IC50 with Plasmodium falciparum [5] worked out at 6.18 µM.
